Assay results as given in BindingDB's records for doi:10.1111/j.1600-0773.1996.tb00261.x (Uppsala University, 1996).
Where a SMILES comes first, the peptide text is derived from it. [ ]: non-standard residue; d: D form. Met(O2) = CS(=O)(=O)CC[C@H](N)C(=O)O

target: Melanocortin receptor 4 (Homo sapiens, UniProt P32245)
Sequence (P32245 whole entry): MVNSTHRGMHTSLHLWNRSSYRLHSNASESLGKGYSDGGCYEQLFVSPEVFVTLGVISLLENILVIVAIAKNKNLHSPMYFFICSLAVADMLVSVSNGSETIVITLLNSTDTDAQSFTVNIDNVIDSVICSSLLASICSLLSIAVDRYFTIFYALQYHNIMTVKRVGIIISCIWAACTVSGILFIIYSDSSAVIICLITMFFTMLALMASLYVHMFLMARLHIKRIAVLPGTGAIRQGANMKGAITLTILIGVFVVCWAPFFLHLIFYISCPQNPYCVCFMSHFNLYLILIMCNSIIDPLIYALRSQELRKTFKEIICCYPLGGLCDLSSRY

Ki | Compound
> 10 µM | CS(=O)(=O)CC[C@H](N)C(=O)N[C@@H](CCC(=O)O)C(=O)N[C@@H](Cc1c[nH]cn1)C(=O)N[C@@H](Cc1ccccc1)C(=O)N[C@H](CCCCN)C(=O)N[C@@H](Cc1ccccc1)C(=O)O [CAS_50913-82-1] (H-[Met(O2)]EHF[dK]F-OH)
> 10 µM | CSCC[C@H](N)C(=O)N[C@@H](CCC(=O)O)C(=O)N[C@@H](Cc1cnc[nH]1)C(=O)N[C@@H](Cc1ccccc1)C(=O)N[C@@H](CCCNC(=N)N)C(=O)N[C@@H](Cc1c[nH]c2ccccc12)C(=O)NCC(N)=O [NSC_123787]
> 10 µM | H-SMEVRGW-OH [delta MSH]
0.693 µM | H-SYSMEHFRWGKPVGKKRRPVKVYPNGAEDESAEAFPLEF-OH [ACTH]
> 10 µM | H-YVMGHFRWDRFGRRNGSSSSGVGGAAQ-OH [Gamma3-MSH]
